Earlier results as cited in PMC9164236 (ACS Organic & Inorganic Au, 2022).

Tests used:
[1] = system: breast CSCs

CC[C@@H](C(=O)[C@@H](C)[C@@H](O)[C@H](C)[C@@H]1O[C@@H]([C@@H](CC)C(=O)O)CC[C@@H]1C)[C@H]1O[C@]2(C=C[C@@H](O)[C@]3(CC[C@@](C)([C@H]4CC[C@](O)(CC)[C@H](C)O4)O3)O2)[C@H](C)C[C@@H]1C [Sal, Salinomycin]
Stability in the presence of iron(III) chloride over time: degrade | Reduction of the proportion of CSCs relative to paclitaxel [1]: > 100 fold
